One data set concerns follicular lymphoma. As to conditions: double-refractory cases; cited from earlier work.
The subject of data set [1] is primary DLBCL and follicular lymphoma patient biopsies. As to conditions: biopsies taken a certain time after anti-CD20 antibody administration; cited from earlier work.
The subject of the next data set is R/R B-NHL patients. Description: Ongoing clinical trial of epcoritamab monotherapy (NCT03625037). The data set is classed as in vivo, human. As to conditions: preliminary data. From the text:
Epcoritamab as monotherapy is currently in a clinical trial for the treatment of relapsed/refractory (R/R) B-NHL (ClinicalTrials.gov Identifier: NCT03625037).

For data set [2], the system named is T cells in presence of Raji cells. Description: In vitro T-cell activation assay, T cells incubated with Raji cells. The data set is classed as cell-based, human. As to conditions: Raji target cells. On the procedure:
(§1) Briefly, Human Burkitt lymphoma (Raji [ATCC, cat. no. CCL-86]) and DLBCL (SU-DHL-4 [Deutsche Sammlung von Mikroorganismen and Zellkulturen—DSMZ, cat. no. ACC-495]) cell lines were used as target cells. Cells were cultured in culture medium (RPMI 1640 with HEPES and L-Glutamine supplemented with 10% heat-inactivated donor bovine serum with iron, and 1% [v/v] penicillin/streptomycin) to which 2 mM L-glutamine, and 1 mM sodium pyruvate were added, at 37° C., 5% CO2. T cells, which were isolated from human healthy donor buffy coats by negative selection using the RosetteSep™ Human T Cell Enrichment Cocktail (Stemcell Technologies) followed by density centrifugation over a Ficoll gradient, both according to the manufacturer's instructions, were used as effector cells. Isolated cells were washed twice in phosphate buffered saline (PBS) and counted using acridine orange/propidium iodide (AO/PI) viability staining solution (Nexcelom Bioscience) on a Cellometer® Auto 2000 Cell Viability Counter. T cells (100,000 cells/well) were incubated with Raji or SU-DHL-4 cells (50,000 cells/well) in culture medium in the presence of epcoritamab (0.033 pg/mL-333 ng/mL) and bendamustine (0-20 μM) at 37° C., 5% CO2 for 48 hours. B-cell viability and T-cell activation were measured by flow cytometry (count of CD22-positive cells; expression of the activation markers CD69, CD25, and CD107 [LAMP-1] on CD4+ and CD8+ T cells). The percentage cytotoxicity was calculated as follows: % cytotoxicity=100−([cell countsample/cell countno antibody]×100%)

The test system of data set [3] is CD20-expressing Raji-luc tumor cells. As to conditions: NOD-SCID mice injected with Raji-luc tumor cells and PBMCs; even in presence of excess IgG1-RTX-FEAR; cited from earlier work.
For data set [4], the system named is T cells in presence of SU-DHL-4 cells. Description: In vitro T-cell activation assay, T cells incubated with SU-DHL-4 cells. The data set is classed as cell-based, human. As to conditions: SU-DHL-4 target cells. As for the experimental part: as §1
A further data set deals with T1, CD20 (Homo sapiens, UniProt P11836).
T1 sequence (P11836 1-297): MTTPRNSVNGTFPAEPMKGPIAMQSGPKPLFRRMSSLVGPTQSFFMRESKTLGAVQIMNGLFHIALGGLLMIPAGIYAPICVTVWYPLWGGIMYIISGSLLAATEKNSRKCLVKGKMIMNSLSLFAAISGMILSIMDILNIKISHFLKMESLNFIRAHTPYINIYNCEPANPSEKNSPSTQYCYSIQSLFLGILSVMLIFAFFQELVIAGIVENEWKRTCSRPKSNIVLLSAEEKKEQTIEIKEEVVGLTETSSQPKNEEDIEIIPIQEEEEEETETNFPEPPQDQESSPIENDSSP
As to conditions: rituximab versus IgG1-CD20; different epitopes; cited from earlier work.

The test system of the next data set is SU-DHL-4 cells. The data set is classed as cell-based, human. As to conditions: bendamustine alone, 0-20 μM, 48 hours. On the procedure:
as §1, with “T cells (100,000 cells/well) were incubated with Raji or SU-DHL-4 cells (50,000 cells/well) in culture medium in the presence of epcoritamab (0.033 pg/mL-333 ng/mL) and bendamustine (0-20 μM) at 37° C., 5% CO2 for 48 hours.” left out

In a further data set the test system is Raji cells. The data set is classed as cell-based, human. As to conditions: bendamustine alone, 0-20 μM, 48 hours. On the procedure:
as §1, with “T cells (100,000 cells/well) were incubated with Raji or SU-DHL-4 cells (50,000 cells/well) in culture medium in the presence of epcoritamab (0.033 pg/mL-333 ng/mL) and bendamustine (0-20 μM) at 37° C., 5% CO2 for 48 hours.” left out

Setting [5] is: bendamustine 0-20 μM, data not shown.
The mark [6] stands for this setting: epcoritamab 0.033 pg/mL-333 ng/mL, 48 hours.

In the case of `CC[C@H](Nc1ncnc2[nH]cnc12)c1nc2cccc(F)c2c(=O)n1-c1ccccc1` [idelalisib], in the data set with follicular lymphoma, the “1-year PFS” value is on record as 43% and the toxicities entry is given as “several toxicities leading to treatment discontinuation”.
Regarding “Epcoritamab: IgG1 bispecific CD3xCD20 antibody, heavy/light chains SEQ ID NOs: 24, 25 and 26, 27; CAS 2134641-34-0”, the T-cell-mediated cytotoxicity entry in [1] was “induced T-cell-mediated cytotoxicity”. Besides, in the data set with R/R B-NHL patients, the tolerability entry is given as “tolerated at doses up to at least 48 mg, including 60 mg”. Moreover, the “epcoritamab-induced T-cell activation in presence of bendamustine” value is on record as “not affected by the presence of bendamustine at all concentrations tested” in [2] (bendamustine 0-20 μM, 48 hours) and “not affected by the presence of bendamustine at all concentrations tested” in data set [4] (bendamustine 0-20 μM, 48 hours). For the same compound, the “upregulation of activation markers on CD4+ T cells in presence of bendamustine” value in data set [2] (setting [5]) and in data set [4] (setting [5]) was “not affected by bendamustine” in each case. The “activation of CD8+ T cells (CD69, CD25, LAMP-1 upregulation)” value in [2] (setting [6]) and in data set [4] (setting [6]) was “induced concentration-dependent activation of CD8+ T cells” each time. Further, the tumor growth result in data set [3] is recorded as “effectively reduce tumor growth”.
For the compound “IgG1-CD20: CD20 antibody of which the CD20 arm of epcoritamab is derived”, the “competition for CD20 binding” value with CD20 is reported as “compete for CD20 binding”.
For the compound `Cn1c(CCCC(=O)O)nc2cc(N(CCCl)CCCl)ccc21` [bendamustine, 4-[5-[Bis(2-chloroethyl)amino]-1-methyl-1H-benzo[d]imidazole-2-yl]butanoic acid], the “number of viable B cells” value with SU-DHL-4 cells and in the data set on Raji cells was “decreased the number of viable B cells in a dose dependent manner” each time.

(Values after patent US11535679B2, “Bispecific antibody against CD3 and CD20 in combination therapy for treating follicular lymphoma” (GENMAB A/S, priority 2020, dated 2022).)
